Results on three molecules are retold here after patent US10994015B2, “EGFR proteolysis targeting chimeric molecules and associated methods of use” (Arvinas Operations, Inc., priority 2016, dated 2021).

SMILES strings stand for the structures.

One test has as its target EGFR Exon 20 ASV (HeLa*) (Homo sapiens (Human), UniProt P00533, DUP767-769). Put plainly: EGFR protein degradation assay (Western blot). The class given is cell-based. Particulars: 72 hours, 300 nM to 10 nM.
Test [1] concerns the target EGFR-wt (MDA-MB-231 or MCF7 or A549 or OVCAR8) (Homo sapiens (Human), UniProt P00533). Put plainly: EGFR protein degradation assay (Western blot). It is filed as cell-based. Particulars: 72 hours, 300 nM to 10 nM. In short, it runs like this:
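EGFR degradation was assessed by Western blot. Cells expressing the appropriate EGFR were seeded in 6-well plates (300,000 cells per well) and adhered overnight. Media was removed, cells were washed with cold phosphate-buffered saline, scraped into 400 μl Cell Signaling lysis buffer plus protease inhibitor cocktail, and spun once at 10 000 rpm for 10 minutes. After BCA quantification, loading buffer and reducing agent were added. Gels loaded with 10 μg protein ran at 165V for 2 hours, and bands were visualized by chemiluminescence.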

Test [2] addresses EGFR L858R/T790M double mutant (H1975) (Homo sapiens (Human), UniProt P00533, L858R/T790M). Put plainly: EGFR protein degradation assay (Western blot). The class given is cell-based. Particulars: 72 hours, 300 nM to 10 nM. In short, it runs like this: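 EGFR protein levels were measured by immunoblotting. Lysate protein was quantified by BCA, and 10 μg per sample was separated by SDS/PAGE at 165V for 2 hours and transferred to PVDF. Membranes were blocked in TBS-T with 5% milk for 1 hour, probed overnight at 4° C with EGFR and tubulin antibodies, then secondary antibody for 1 hour, and detected by ECL on a Chemidoc.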

Another test has as its target EGFR Δ19/746/750 T790M (Homo sapiens (Human), UniProt P00533, DEL746-750/T790M). Put plainly: TR-FRET assay for ERBB kinases. It is filed as biochemical. Particulars: geometric mean if measured more than once. In short, it runs like this: (§1)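 Phosphorylation of fluorescein-labeled poly-GluTyr read as TR-FRET using Tb-pY20 antibody after EDTA stop, with 340 nm excitation. Kinase reaction ran 10 min at room temperature following 10 min compound pre-incubation; substrate mix held 3 mM ATP and 30 µM peptide before addition. Buffer was HEPES pH 7.5.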

The next test has as its target EGFR Exon20NPG (Homo sapiens (Human), UniProt P00533, INS770NPG). Description: TR-FRET assay for ERBB kinases. The class given is biochemical. Particulars: geometric mean if measured more than once. Put shortly: as §1
In another test the target is EGFR L858R (Homo sapiens (Human), UniProt P00533, L858R). Put plainly: TR-FRET assay for ERBB kinases. It is filed as biochemical. Particulars: geometric mean if measured more than once. Put shortly:
as §1

For the next test, the target named is HER2WT (Homo sapiens (Human), UniProt P04626). Description: TR-FRET assay for ERBB kinases. It is filed as biochemical. The settings on record: geometric mean if measured more than once. Put shortly:
as §1

A further test addresses EGFR Δ19/746/750 (Homo sapiens (Human), UniProt P00533, DEL746-750). Description: TR-FRET assay for ERBB kinases. It is filed as biochemical. Particulars: geometric mean if measured more than once. In short, it runs like this:
as §1

Another test has as its target EGFR L858R/T790M (Homo sapiens (Human), UniProt P00533, L858R/T790M). Put plainly: TR-FRET assay for ERBB kinases. The settings on record: geometric mean if measured more than once. It is filed as biochemical. Put shortly:
(§2)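 HEPES pH 7.5 buffer with 10 mM MgCl2 and 1 mM DTT; 10 min enzyme–compound pre-incubation. A 10 min room-temperature reaction was initiated by a mix carrying 3 mM ATP, stopped with EDTA, and detected by time-resolved FRET at 340 nm excitation.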

The next test addresses EGFR WT (Homo sapiens (Human), UniProt P00533). Description: TR-FRET assay for ERBB kinases. It is filed as biochemical. Particulars: geometric mean if measured more than once. In short, it runs like this:
as §2

The target in a further test is EGFR L858R/T790M/C797S (Homo sapiens (Human), UniProt P00533, C797S/L858R/T790M). Put plainly: TR-FRET assay for ERBB kinases. It is filed as biochemical. The settings on record: geometric mean if measured more than once. Put shortly:
as §2

Sequence of HER2WT (P04626 23-1255): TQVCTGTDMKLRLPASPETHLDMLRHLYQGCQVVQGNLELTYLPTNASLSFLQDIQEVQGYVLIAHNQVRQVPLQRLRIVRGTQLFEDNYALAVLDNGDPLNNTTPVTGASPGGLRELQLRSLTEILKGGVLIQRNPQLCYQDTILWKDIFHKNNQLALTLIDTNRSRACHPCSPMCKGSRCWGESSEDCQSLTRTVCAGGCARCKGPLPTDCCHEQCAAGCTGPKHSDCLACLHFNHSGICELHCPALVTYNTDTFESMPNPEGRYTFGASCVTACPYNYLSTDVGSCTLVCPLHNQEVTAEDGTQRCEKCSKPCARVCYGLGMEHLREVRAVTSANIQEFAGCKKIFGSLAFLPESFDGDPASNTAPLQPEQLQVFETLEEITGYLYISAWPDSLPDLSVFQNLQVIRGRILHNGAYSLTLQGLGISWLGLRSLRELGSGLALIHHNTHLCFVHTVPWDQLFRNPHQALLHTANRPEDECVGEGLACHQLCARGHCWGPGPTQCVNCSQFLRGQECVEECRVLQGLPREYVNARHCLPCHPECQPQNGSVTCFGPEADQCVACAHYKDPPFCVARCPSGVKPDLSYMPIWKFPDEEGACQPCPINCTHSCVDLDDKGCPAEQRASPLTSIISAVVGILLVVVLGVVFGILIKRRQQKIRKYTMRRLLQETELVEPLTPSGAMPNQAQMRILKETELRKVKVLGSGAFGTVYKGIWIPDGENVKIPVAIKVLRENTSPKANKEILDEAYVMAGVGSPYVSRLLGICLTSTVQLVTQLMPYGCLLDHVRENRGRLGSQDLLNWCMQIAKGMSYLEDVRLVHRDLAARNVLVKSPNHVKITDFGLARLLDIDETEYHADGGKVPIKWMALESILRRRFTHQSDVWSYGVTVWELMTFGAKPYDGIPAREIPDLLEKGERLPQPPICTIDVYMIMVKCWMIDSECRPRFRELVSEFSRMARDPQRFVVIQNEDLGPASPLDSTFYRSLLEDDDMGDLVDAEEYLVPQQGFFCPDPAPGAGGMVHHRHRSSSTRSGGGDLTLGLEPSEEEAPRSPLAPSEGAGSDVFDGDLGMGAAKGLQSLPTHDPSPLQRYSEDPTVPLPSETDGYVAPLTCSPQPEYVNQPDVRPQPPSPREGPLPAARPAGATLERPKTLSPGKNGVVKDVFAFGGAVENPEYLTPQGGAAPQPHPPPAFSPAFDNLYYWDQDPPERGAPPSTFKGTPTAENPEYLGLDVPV
Sequence of EGFR L858R/T790M (P00533 25-1210 T790M/L858R): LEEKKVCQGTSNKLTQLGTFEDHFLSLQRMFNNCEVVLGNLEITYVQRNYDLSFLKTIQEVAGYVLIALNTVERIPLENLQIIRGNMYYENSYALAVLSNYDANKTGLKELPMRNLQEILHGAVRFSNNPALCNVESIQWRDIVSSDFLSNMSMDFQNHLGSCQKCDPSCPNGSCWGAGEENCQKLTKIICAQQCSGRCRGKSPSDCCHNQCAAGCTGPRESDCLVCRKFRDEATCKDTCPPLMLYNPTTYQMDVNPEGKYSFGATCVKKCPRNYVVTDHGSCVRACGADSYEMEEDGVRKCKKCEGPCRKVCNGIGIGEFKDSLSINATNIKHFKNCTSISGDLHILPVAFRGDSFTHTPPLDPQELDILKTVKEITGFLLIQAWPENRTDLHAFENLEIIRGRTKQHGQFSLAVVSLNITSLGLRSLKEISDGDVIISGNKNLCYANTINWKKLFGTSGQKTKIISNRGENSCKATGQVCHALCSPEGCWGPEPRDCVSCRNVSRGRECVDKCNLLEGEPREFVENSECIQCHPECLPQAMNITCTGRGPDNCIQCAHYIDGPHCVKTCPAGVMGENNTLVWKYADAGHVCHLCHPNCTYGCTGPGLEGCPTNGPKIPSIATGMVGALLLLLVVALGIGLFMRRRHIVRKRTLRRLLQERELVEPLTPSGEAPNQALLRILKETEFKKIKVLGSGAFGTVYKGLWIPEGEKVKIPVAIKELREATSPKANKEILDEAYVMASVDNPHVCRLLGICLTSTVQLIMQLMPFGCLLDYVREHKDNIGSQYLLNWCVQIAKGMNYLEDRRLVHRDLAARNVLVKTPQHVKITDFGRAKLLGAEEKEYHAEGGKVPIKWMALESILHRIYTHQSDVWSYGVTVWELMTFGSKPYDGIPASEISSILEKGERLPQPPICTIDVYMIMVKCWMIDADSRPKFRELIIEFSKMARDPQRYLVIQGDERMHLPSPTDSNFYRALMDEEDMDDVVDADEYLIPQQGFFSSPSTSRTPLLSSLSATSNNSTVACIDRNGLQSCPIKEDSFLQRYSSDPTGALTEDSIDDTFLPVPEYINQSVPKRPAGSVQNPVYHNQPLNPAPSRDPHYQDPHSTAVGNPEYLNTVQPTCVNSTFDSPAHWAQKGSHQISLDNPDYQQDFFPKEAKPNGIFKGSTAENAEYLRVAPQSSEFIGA
Sequence of EGFR L858R/T790M double mutant (H1975) (P00533 25-1210 T790M/L858R): as above
Sequence of EGFR Δ19/746/750 (P00533 other isoform, or with tags, fused parts or gaps del 1-694/del 746-750 limits assumed): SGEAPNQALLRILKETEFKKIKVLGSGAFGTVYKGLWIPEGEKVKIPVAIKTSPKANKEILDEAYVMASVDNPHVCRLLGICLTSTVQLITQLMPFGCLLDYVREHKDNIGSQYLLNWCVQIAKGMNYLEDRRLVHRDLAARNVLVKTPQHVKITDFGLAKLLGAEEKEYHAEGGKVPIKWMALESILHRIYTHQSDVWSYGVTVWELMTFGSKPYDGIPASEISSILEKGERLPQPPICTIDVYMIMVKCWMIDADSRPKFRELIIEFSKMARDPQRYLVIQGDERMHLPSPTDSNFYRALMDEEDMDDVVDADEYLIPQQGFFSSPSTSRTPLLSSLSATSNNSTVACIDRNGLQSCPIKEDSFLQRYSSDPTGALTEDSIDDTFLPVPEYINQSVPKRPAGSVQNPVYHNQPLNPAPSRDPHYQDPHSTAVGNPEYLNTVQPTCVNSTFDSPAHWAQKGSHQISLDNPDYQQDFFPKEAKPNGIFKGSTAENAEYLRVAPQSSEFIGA
Sequence of EGFR Exon20NPG (P00533 other isoform, or with tags, fused parts or gaps del 1-694/ins NPG behind 770 limits assumed): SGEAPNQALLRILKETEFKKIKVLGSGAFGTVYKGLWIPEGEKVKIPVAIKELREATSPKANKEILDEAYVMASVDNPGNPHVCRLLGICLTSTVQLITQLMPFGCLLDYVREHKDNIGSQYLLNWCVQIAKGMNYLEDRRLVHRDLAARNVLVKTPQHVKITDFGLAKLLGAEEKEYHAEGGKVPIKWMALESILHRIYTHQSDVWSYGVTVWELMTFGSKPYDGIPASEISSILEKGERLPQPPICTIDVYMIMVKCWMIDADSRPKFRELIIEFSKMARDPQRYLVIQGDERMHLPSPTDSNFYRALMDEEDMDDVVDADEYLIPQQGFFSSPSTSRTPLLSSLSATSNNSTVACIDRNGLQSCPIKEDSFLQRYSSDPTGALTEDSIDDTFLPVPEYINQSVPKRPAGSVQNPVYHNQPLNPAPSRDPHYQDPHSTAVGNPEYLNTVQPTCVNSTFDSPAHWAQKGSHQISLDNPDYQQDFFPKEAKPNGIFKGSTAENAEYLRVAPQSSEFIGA

In the case of `Cc1ncsc1-c1ccc(CNC(=O)[C@@H]2C[C@@H](O)CN2C(=O)[C@@H](NC(=O)COCCOCCOCCOCCOCCN2CCN(Cc3ccc(-c4cc5c(NCc6ccccc6Cl)ncnc5[nH]4)cc3)CC2)C(C)(C)C)cc1` [compound 3], the “EGFR protein remaining, EGFR Exon 20 ASV” value at EGFR Exon 20 ASV (HeLa*) was “C (>80% EGFR protein remaining after 72 hours of incubation with the test compound at a concentration of 300 nM)”. Further, the “EGFR protein remaining, EGFR-wt” value in [1] was “C (>80% EGFR protein remaining after 72 hours of incubation with the test compound at a concentration of 300 nM)”. For the same molecule, the “EGFR protein remaining, EGFR L858R/T790M double mutant” value in test [2] is “C (>80% EGFR protein remaining after 72 hours of incubation with the test compound at a concentration of 300 nM)”. For the same molecule, the 50% inhibitory concentration (IC50) at EGFR Δ19/746/750 T790M is 6.6 µM; on EGFR Exon20NPG, 0.86 µM; on EGFR L858R it was 0.024 µM; on HER2WT, 1.5 µM; on EGFR Δ19/746/750, 0.0055 µM; at EGFR L858R/T790M, 14 µM. In addition, the concentration for half-maximal inhibition (IC50) stood at 0.21 µM at EGFR WT and 14 µM on EGFR L858R/T790M/C797S.
On to `Cc1ncsc1-c1ccc(CNC(=O)[C@@H]2C[C@@H](O)CN2C(=O)[C@@H](NC(=O)COCCN2CCN(Cc3ccc(-c4cc5c(NCc6ccccc6Cl)ncnc5[nH]4)cc3)CC2)C(C)(C)C)cc1` [compound 5], for which the “EGFR protein remaining, EGFR Exon 20 ASV” value at EGFR Exon 20 ASV (HeLa*) was “C (>80% EGFR protein remaining after 72 hours of incubation with the test compound at a concentration of 300 nM)”. The “EGFR protein remaining, EGFR-wt” value in test [1] is recorded as “C (>80% EGFR protein remaining after 72 hours of incubation with the test compound at a concentration of 300 nM)”. In addition, in test [2], the “EGFR protein remaining, EGFR L858R/T790M double mutant” value is on record as “C (>80% EGFR protein remaining after 72 hours of incubation with the test compound at a concentration of 300 nM)”. The IC50 at EGFR Δ19/746/750 T790M worked out at 7.3 µM; at EGFR Exon20NPG, 0.53 µM; at EGFR L858R it was 0.011 µM; on HER2WT, 1.5 µM; at EGFR Δ19/746/750, 0.0041 µM; on EGFR L858R/T790M, 19 µM. Also, the results for the IC50 on EGFR WT and at EGFR L858R/T790M/C797S were 0.04 µM and 5.4 µM, respectively.
Consider `O=C1CCC(N2C(=O)c3cccc(NCCOCCOCCOCCN4CCN(Cc5ccc(-c6cc7c(NCc8ccccc8Cl)ncnc7[nH]6)cc5)CC4)c3C2=O)C(=O)N1` (stereo not drawn) [compound 6], for which, at EGFR Exon 20 ASV (HeLa*), the “EGFR protein remaining, EGFR Exon 20 ASV” value is on record as “C (>80% EGFR protein remaining after 72 hours of incubation with the test compound at a concentration of 300 nM)”. Moreover, in [1], the “EGFR protein remaining, EGFR-wt” value is on record as “C (>80% EGFR protein remaining after 72 hours of incubation with the test compound at a concentration of 300 nM)”. Moreover, the “EGFR protein remaining, EGFR L858R/T790M double mutant” value in [2] is “C (>80% EGFR protein remaining after 72 hours of incubation with the test compound at a concentration of 300 nM)”. In addition, the IC50 is 2.2 µM on EGFR Δ19/746/750 T790M; 0.23 µM at EGFR Exon20NPG; 0.047 µM at EGFR L858R; 0.52 µM on HER2WT; 0.0029 µM on EGFR Δ19/746/750; 8.9 µM at EGFR L858R/T790M. For the same molecule, the IC50 at EGFR WT came to 0.064 µM; on EGFR L858R/T790M/C797S, 3 µM.
